Assay results as given in patent publication US11660286B2, “Methods and compositions comprising a nitrite-reductase promoter for treatment of medical disorders and preservation of blood products” (EpicentRx, Inc., priority 2011, dated 2023).
Where two headings read alike, the source gives them in different places.

Tests used:
hemorrhagic shock [1] = experiment: Resuscitation from hemorrhagic shock, hamster window chamber model: systemic parameters; conditions: for BP / HR / Hb / Hct / Lactate / pCO2 / pO2 / pH: mean ± SD; for pH: arterial
Method: (§1) Experiments were performed in 55-65 g male Golden Syrian Hamsters (Charles River Laboratories, Boston, Mass.) fitted with a dorsal skinfold window chamber. Animal handling and care followed the NIH Guide for the Care and Use of Laboratory Animals. The hamster window chamber model is widely used for microvascular studies in the unanesthetized state. The complete surgical technique is described in detail elsewhere, such as in Colantuoni et al. in Am J Physiol 1984; 246:H508-17. Three to four days after the initial surgery, the microvasculature was examined and only animals passing an established systemic and microcirculatory inclusion criteria, as previously described (e.g., in Cabrales P. Low dose nitrite enhances perfusion after fluid resuscitation from hemorrhagic shock. Resuscitation 2009; 80: 1431-6), were entered into the study.
(§2) Acute hemorrhage was induced by withdrawing 50% of estimated total blood volume (BV) via the carotid artery catheter within 5 min. Total BV was estimated as 7% of body weight. One hour after hemorrhage induction, animals received 25% of BY of resuscitation (200 μl/min) via the jugular vein catheter, implemented with the volume resuscitation strategy defined by the group name, according to the scheme described before.
(§3) Fresh blood was collected from a donor, adult male Golden Syrian Hamsters (60-80 g). Briefly, hamster donors were anaesthetized, left carotid artery catheter was implanted, and blood was allowed to flow into heparinized tubes (sodium heparin 15 IU/mL). RBCs and plasma were separated by centrifugation (2700 rpm, 7 min). Buffy coat was discarded. RRx-001 treated cells were prepared by incubation of 1 mL of packed cells with 2 mg of RRx-001 for 30 minutes at 4° C., cells were rinsed 2× by centrifugation at 3,000 rpm with phosphate buffer saline (PBS) solution with 0.5% albumin (pre-filtered 0.22 μm, pH 7.4). After the final wash, red blood cells (RBCs) were adjusted to a 30% Het with fresh plasma.
(§4) For the groups that received “nitrite,” 10 μM (in saline 100 μL) of sodium nitrite in saline was infused via the carotid artery catheter 10 minutes after resuscitation for the groups that received nitrite. An equal volume of saline was given to the other groups. To address effects of instrumentation and observation, an additional Sham group was included.
(§5) Conscious animal was placed in a restraining tube with a longitudinal slit from which the window chamber protruded, then fixed to the microscopic stage for transillumination with the intravital microscope (BX51WI, Olympus, New Hyde Park, N.Y.). Animals were given 20 min to adjust to the tube environment before any measurements were made. The tissue image was projected onto a charge-coupled device camera (4815, COHU, San Diego, Calif.) connected to a videocassette recorder and viewed on a monitor. Measurements were carried out using a 40× (LUMPFL-WIR, numerical aperture 0.8, Olympus) water immersion objective. Systemic (MAP, HR, Het, Hb, PaO2, PaCO2, pH, lactate, plasma nitrite, and metHb) and microvascular (artciorlar and venular diameters, blood flow, and FCD) parameters were analyzed, as previously described (e.g., in P. Nachuraju et al. in Resuscitation 2011; 82:607-613; Cabrales P. in Resuscitation 2009; 80:1431-6; Cabrales et al. in Shock 2007; 27:380-9; and Cabrales et al. in Am J Physiol 2004; 287:H363-73) before hemorrhage (baseline), after hemorrhage (shock), and up to 90 min after volume replacement (resuscitation). Tissue viability was measured at 8 hours following hemorrhage as described previously (e.g., in Yang et al. In Invest Ophthalmol Vis Sci 2003; 44:1993-1997; and Cabrales et al. in Antioxid Redox Signal 2007; 9:375-84).
(§6) Table and figure results are presented as mean±SD.

hemorrhagic shock [2] = format: in vivo, Golden Syrian Hamsters; conditions: hamster, in vivo
Method: as §1
Acute hemorrhage was induced by withdrawing 50% of estimated total blood volume (BV) via the carotid artery catheter within 5 min. Total BV was estimated as 7% of body weight. […]
as §5, with “Animals were given 20 min to adjust to the tube environment before any measurements were made. The tissue image was projected onto a charge-coupled device camera (4815, COHU, San Diego, Calif.) connected to a videocassette recorder and viewed on a monitor. Measurements were carried out using a 40× (LUMPFL-WIR, numerical aperture 0.8, Olympus) water immersion objective.” left out, “9:375-84). […]” for “9:375-84).”

hemorrhagic shock [3] = experiment: Resuscitation from hemorrhagic shock, hamster window chamber model: microvascular measurements; format: in vivo, Golden Syrian Hamsters
Method: as §1, §2, §3, §4, §5, §6

hemorrhagic shock [4] = conditions: 50 μM nitrite, previous study, cited from earlier work
[5] = Shock (50 min), after hemorrhage, before resuscitation
[6] = Shock (50 min), before resuscitation
[7] = 60 minutes following resuscitation

O=NO [Nitrite, sodium nitrite]
BP (hemorrhagic shock [1]; Baseline (before hemorrhage)): 104.3 ± 9.0 mmHg | HR (hemorrhagic shock [1]; Baseline (before hemorrhage)): 428 ± 13 bpm | Hb (hemorrhagic shock [1]; Baseline (before hemorrhage)): 15.2 ± 0.3 g/dL | Hct (hemorrhagic shock [1]; Baseline (before hemorrhage)): 49.8 ± 0.8% | Lactate (hemorrhagic shock [1]; Baseline (before hemorrhage)): 1.30 ± 0.13 mmol/L | pCO2 (hemorrhagic shock [1]; Baseline (before hemorrhage)): 52.9 ± 1.2 mmHg | pO2 (hemorrhagic shock [1]; Baseline (before hemorrhage)): 60.5 ± 1.0 mmHg | BP (hemorrhagic shock [1]; Resuscitation (30 min)): 91.3 ± 6.9 mmHg | HR (hemorrhagic shock [1]; Resuscitation (30 min)): 438 ± 21 bpm | BP (hemorrhagic shock [1]; Resuscitation (60 min)): 96.3 ± 7.5 mmHg | HR (hemorrhagic shock [1]; Resuscitation (60 min)): 447 ± 21 bpm | Hb (hemorrhagic shock [1]; Resuscitation (60 min)): 9.5 ± 0.2 g/dL | Hct (hemorrhagic shock [1]; Resuscitation (60 min)): 31.0 ± 0.7% | Lactate (hemorrhagic shock [1]; Resuscitation (60 min)): 1.95 ± 0.11 mmol/L | pCO2 (hemorrhagic shock [1]; Resuscitation (60 min)): 48.3 ± 2.2 mmHg | pO2 (hemorrhagic shock [1]; Resuscitation (60 min)): 76.0 ± 2.9 mmHg | BP (hemorrhagic shock [1]; Resuscitation (90 min)): 94.7 ± 6.5 mmHg | HR (hemorrhagic shock [1]; Resuscitation (90 min)): 459 ± 14 bpm | Hb (hemorrhagic shock [1]; Resuscitation (90 min)): 9.6 ± 0.1 g/dL | Hct (hemorrhagic shock [1]; Resuscitation (90 min)): 31.5 ± 0.4% | Lactate (hemorrhagic shock [1]; Resuscitation (90 min)): 1.71 ± 0.20 mmol/L | pCO2 (hemorrhagic shock [1]; Resuscitation (90 min)): 45.0 ± 2.4 mmHg | pO2 (hemorrhagic shock [1]; Resuscitation (90 min)): 65.2 ± 3.0 mmHg | BP (hemorrhagic shock [1]; [5]): 46.1 ± 3.6 mmHg | HR (hemorrhagic shock [1]; [5]): 455 ± 21 bpm | Hb (hemorrhagic shock [1]; [5]): 8.9 ± 0.1 g/dL | Hct (hemorrhagic shock [1]; [5]): 29.2 ± 0.5% | Lactate (hemorrhagic shock [1]; [6]): 4.52 ± 0.58 mmol/L | pCO2 (hemorrhagic shock [1]; [6]): 38.9 ± 1.3 mmHg | pO2 (hemorrhagic shock [1]; [6]): 93.1 ± 2.8 mmHg | pH (hemorrhagic shock [1]; Baseline (before hemorrhage)): 7.34 ± 0.02 | pH (hemorrhagic shock [1]; Resuscitation (60 min)): 7.38 ± 0.02 | pH (hemorrhagic shock [1]; Resuscitation (90 min)): 7.36 ± 0.02 | pH (hemorrhagic shock [1]; [6]): 7.30 ± 0.01 | HR compared to the blood group (hemorrhagic shock [1]; hamster, in vivo): significantly increased | MAP compared to the blood group (hemorrhagic shock [1]; hamster, in vivo): significantly decreased | decreases in lactate levels compared to the blood group (hemorrhagic shock [1]; hamster, in vivo): did not reach significance | pH compared to the blood group (hemorrhagic shock [1]; hamster, in vivo): significantly increased | pO2 levels compared to the blood group (hemorrhagic shock [1]; hamster, in vivo): significantly increased | number of necrotic cells compared to the blood group (hemorrhagic shock [2]): significantly reduced | functional capillary density (FCD), baseline average and standard deviation (hemorrhagic shock [3]; Baseline, before hemorrhage (FIG. 11)): 107±12 | functional capillary density (FCD) compared to the blood group (hemorrhagic shock [3]; hamster, in vivo): not significantly different | % metHb (hemorrhagic shock [4]; [7]): 5.8±1.8% | Blood pressure compared to 0 μM group (control group) (hemorrhagic shock [4]; [7]): significantly decreased | % metHb (hemorrhagic shock [4]; 90 minutes following resuscitation): 3.1±1.3%
